Patent US6211209A, “Method of inhibiting connective tissue degradation” (Warner-Lambert Company, priority 1998, dated 2001)

Legend:
cartilage = assay: Rabbit model of IL-1α-induced cartilage degradation (intra-articular injection, knee joint); assay type: in vivo; settings: for Proteoglycan Loss (% Control): 24 hours (IL-1α alone 35.40 ± 3.12)
Procedure: Rabbits (3.0-3.2 kg) were obtained from Hazelton (Denver, Pa.); Xylazine from W. A. Butler (Columbus, Ohio); Rompun from Miles Inc, (Shawnee Mission, Kans.); Ketamine HCl from Aveco (Fort Dodge Labs, Fort Dodge, Iowa); Pentobarbital from Western Medical Supply (Acadia, Calif.); human recombinant Interleukin-1α (IL-1α) from Genzyme (Cambridge, Mass.); Cetus Pro/Pette (Perkin Elmer, Norwalk, Conn.); Biomek 1000 (Beckman, Fullerton, Calif.).
The assay was performed in two phases. The hind leg knee joints were first injected with IL-1α and compound for 24 hours. The proteoglycan content of cartilage was then quantified by measuring chondroitin sulfate present using the 1,9-Dimethylmethylene Blue Assay (DMB).
Each treatment was done in quadruplicate, necessitating twelve animals per study. Rabbits were anesthetized by injecting intramuscularly 0.9 mL Rompun combined with 1.8 mL Ketoset. Hind leg knee area was shaved and wiped with 70% EtOH and both drug and IL-1α were injected intra-articulary (27-gauge needle) in succession.
0.5 mL DMSO/Saline and 0.5 mL PBS/0.2% FCS.
0.5 mL DMSO/Saline containing 8 μg Compound 1 and 2500 U/0.5 mL IL-1α.
0.5 mL DMSO/Saline containing 8 μg Compound 1 and 0.5 mL PBS/0.2% FCS.
0.5 mL DMSO/Saline containing 24 μg Compound 1 and 0.5 mL IL-1α.
0.5 mL DMSO/Saline containing 24 μg Compound 1 and 0.5 mL PBS/0.2% FCS. […]
The ability of a compound to inhibit proteoglycan release from cartilage pieces was quantified by measuring chondroitin sulfate. […] This color change was measured using a Titertek Multiscan MCC 340 plate reader at 540 nm. […] The DMB assay was performed by adding 10 μL of samples to 290 μL DMB (16 mg dye/L of 0.1 M formate buffer, pH 3.5, containing 5 mL ethanol) and reading at 540 nm. Once the experiment was completed the total amount of proteoglycan remaining in the cartilage pieces was determined by digesting cartilage samples with papain and then performing 1,9 DMB assay on the digest. […] Digested material was diluted (1:5, 1:10, 1:20) and chondroitin sulfate values determined using the 1,9 DMB assay.

72 kDa gelatinase = assay: Gelatin zymography of bovine nasal cartilage conditioned media: expression of 72 kDa gelatinase; assay type: cell-based; settings: various concentrations, FIG. 1
Procedure: To evaluate the effects of the compounds of the present invention on the expression of 72 kDa and 92 kDa gelatinases, samples obtained from the bovine nasal cartilage study (described above) were subjected to gelatin zymography.
Separating gels (8%) were made by combining 400 μL gelatin (25 mg/mL) with: 2.5 mL Tris (1.5 M); 100 μL SDS (10%); 2.6 mL acrylamide (30%); 10 μL TEMED; 4.6 mL dH2 O; 100 μL ammonium persulfate (10%). Stacking gels (4.5%) were formed by combining: 2.5 mL Tris (0.5 M); 100 μL SDS (10%); 1.5 mL acrylamide (30%); 10 μL TEMED; 5.8 mL dH2 O; 100 μL ammonium persulfate (10%).
Bovine nasal cartilage conditioned media was diluted (1:15) using sample buffer 1X (2% SDS, 15% glycerol, 0.01% bromophenol blue, 0.25M Trizma Base, pH 6.8). Thirty microliters of each of the diluted samples and molecular weight standards were subjected to electrophoresis at 4° C. under constant current conditions (20 mA of current/gel) using Tris/Glycine running buffer (0.5 M Trizma Base, pH 8.8 using glycine, 1% SDS) that was diluted 1:20 before use.
After completion of the electrophoretic procedure, the gel was first washed twice for 15 minutes in 2.5% Triton X-100. The gel was then rinsed with the gel incubation buffer (0.05 M Tris, pH 8.2, 0.005 M CaCl2, 0.5 μM ZnCl2) and incubated overnight in this buffer at 37° C. […]

S=c1[nH]nc(-c2ccccc2Nc2ccccc2)o1 [Compound 1, 5-(2-Phenylamino-phenyl)-3H-[1,3,4]oxadiazole-2-thione]
Proteoglycan Loss (% Control) (cartilage; 8 μg/jt with IL-1α): 18.78 ± 10.98 % Control | Proteoglycan Loss (% Control) (cartilage; 24 μg/jt with IL-1α, * significantly different from IL-1α alone): 9.35 ± 7.26 % Control | inhibiting cartilage degradation (cartilage; 8 and 24 μg/joint, 24 hours): effective in inhibiting cartilage degradation in a dose-dependent manner | effect on expression of 72 kDa gelatinase (72 kDa gelatinase): no effect on expression of 72 kDa gelatinase
